Source: US20050060764A1, “Mouse model for bone metabolism” (priority 2003, published 2005)
“Also recorded” adds a separate entry of the source. Strand notation (5' to 3'): a small letter for the sugar, then the base; units joined by * are phosphorothioate-linked, units joined directly phosphodiester-linked; [ ] holds rarer units or linkages, { } end groups; capitals alone tell only the bases. e = 2'-O-(2-methoxyethyl) (MOE); [5mC] = 5-methylcytosine; d = 2'-deoxy (DNA)

How the values were obtained:
RANKL mRNA [1] = assay: Antisense inhibition of RANKL mRNA expression followed by PTH treatment in primary mouse osteoblast cells: dose response (Table 8); assay type: cell-based; conditions: for % RANKL mRNA inhibition: 10 nM PTH last 2 h, relative to PTH alone
Protocol: Primary mouse osteoblasts were prepared from calvaria of neonatal mice purchased from Charles River Laboratories. […] Cells were not passaged. Cells were seeded onto 6-well plates (Falcon-Primaria #353846) at a density of 50,000 cells/well for use in antisense oligonucleotide transfection.
In a further embodiment of this invention, the effect of RANKL antisense oligonucleotides and PTH treatment on the expression of RANKL was determined in primary osteoblast cells isolated from mice skull caps.
ISIS 143624 ([…], SEQ ID NO: 348) was used as a control oligonucleotide. […] All cytidine residues are 5-methylcytidines.
Primary osteoblastic cells were transfected for 24 hours with either Isis 180819 (SEQ ID NO: 185) or the control oligo ISIS 143624 (SEQ ID NO: 348) at a dose of […], 125 nM, 250 nM, or 500 nM by the methods described herein but using the transfection reagent FuGENE 6 (Roche Applied Science, Indianapolis, Ind.). During the last 2 hours of oligonucleotide transfection, the cells were treated with 10 nM PTH. The RNA was then harvested and the expression levels of […] were measured by the methods described herein. The results are expressed as percent inhibition relative to PTH treatment alone and represent the average from three experiments.

RANKL mRNA [2] = assay: as above; assay type: cell-based; conditions: 63 nM oligonucleotide 24 h, 10 nM PTH last 2 h, relative to PTH alone
mouse RANKL mRNA [3] = assay: Antisense inhibition of mouse RANKL mRNA levels in C2C12 cells, quantitative real-time PCR (Table 2); assay type: cell-based; set-up: concentration or dose not given beside the values; conditions: averages from three experiments
How it was run: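 C2C12 cells seeded at ~10,000 cells/cm^2, treated with antisense oligonucleotides (all C as 5-methylcytidine) in triplicate and harvested 16-24 h later. Mouse RANKL mRNA quantified by real-time RT-PCR with a FAM/TAMRA probe, with mouse GAPDH (JOE/TAMRA probe) as reference.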

mouse RANKL mRNA [4] = assay: Antisense inhibition of mouse RANKL mRNA in C2C12 cells: dose response (Table 5); assay type: cell-based; conditions: relative to untreated control
Protocol: Cells were seeded into 24-well plates (Falcon-353047 at a density of ˜10,000 cells/cm^2 for use in antisense oligonucleotide transfection.
Cells are treated and data are obtained in triplicate. […] Cells were harvested 16-24 hours after oligonucleotide treatment.
Probes and primers to mouse RANKL were designed to hybridize to a mouse RANKL sequence, using published sequence information (GenBank accession number AF013170.1, incorporated herein as SEQ ID NO:ll). For mouse RANKL the PCR primers were: • forward primer: […] (SEQ ID NO:12) • reverse primer: […] (SEQ ID NO: 13) and • the PCR probe was: FAM-[…]-TAMRA (SEQ ID NO: 14) where FAM is the fluorescent reporter dye and TAMRA is the quencher dye. For mouse GAPDH the PCR primers were: • forward primer: […](SEQ ID NO:15) • reverse primer: […](SEQ ID NO:16) and the • PCR probe was: 5′ JOE-[…]-TAMRA 3′ (SEQ ID NO: 17) where JOE is the fluorescent reporter dye and TAMRA is the quencher dye.
In accordance with the present invention, a subset of the antisense oligonucleotides in Example 16 was further investigated in dose-response studies. The oligonucleotides used in this investigation were ISIS 180812 (SEQ ID NO: 178), ISIS 180814 (SEQ ID NO: 180), ISIS 180819 (SEQ ID NO: 185), ISIS 180828 (SEQ ID NO: 194) and the control oligonucleotide ISIS 101757 ([…], SEQ ID NO: 355). […] All cytidine residues are 5-methylcytidines.
C2C12 cells were treated with the oligonucleotides at 10, 50, 75, 100, and 150 nM as described in other examples herein. […] The results are expressed as percent inhibition relative to the untreated control. The data, shown in Table 5, are averages from two experiments and illustrate the oligonucleotides of the present invention are able to downregulate RANKL mRNA expression in a dose-dependent manner.

RANKL mRNA [5] = assay: Antisense inhibition of RANKL mRNA in proximal tibia and calvaria of mice after PTH infusion: dose response and delivery method (Table 9); assay type: in vivo, mouse
Protocol: In accordance with the present invention, the levels of RANKL in the proximal tibia and calvaria in mice were measured following antisense oligonucleotide treatment and PTH infusion.
Female Swiss-Webster mice (5-8 wks old) fed a low-calcium diet were treated with ISIS 180819 (SEQ ID NO: 185) by subcutaneous injection at a dose of either 30 mg/kg or 50 mg/kg or intraperitoneal injection at a dose of either 15 mg/kg, 30 mg/kg or 50 mg/kg. After 2 weeks of daily treatment, the mice were infused with PTH at a dose of 1 ug/100 g/6 hr. After 24 hours of PTH infusion (total PTH delivery of 4 ug/100 g), the mice were sacrificed. The proximal tibia and calvaria were isolated and the level of RANKL mRNA expression was determined in each using two different primer-probe sets to confirm the results. The first primer-probe set was #1207, consisting of […] (forward primer, SEQ ID NO: 349), […] (reverse primer, SEQ ID NO: 350) and […] (probe, SEQ ID NO: 351). The second primer-probe set was #1015, consisting of […] (forward primer, SEQ ID NO: 352), […] (reverse primer, SEQ ID NO: 353) and […] (probe, SEQ ID NO: 354). The results are expressed as percent inhibition relative to PTH treatment alone and represent the average of eight mice per group.

[6] = Serum calcium concentration 24 hours after PTH infusion in mice treated with RANKL antisense oligonucleotides (Table 10); assay type: in vivo, mouse; conditions: for serum calcium: then 24 h PTH infusion
Protocol: In accordance with the present invention, the effect of antisense oligonucleotide inhibition on PTH-induced serum calcium concentration increase was measured in mice. The serum calcium concentration in mice was measured as a function of antisense oligonucleotide dose. Calcitonin, a known bone antiresorptive agent, was used as a control for antiresorptive activity.
(§1) Female Swiss-Webster (5-8 wks old) mice fed a low-calcium diet were dosed subcutaneously for two weeks with either the oligonucleotides ISIS 180819 (SEQ ID NO: 185) or 180814 (SEQ ID NO: 180) at concentrations of 5 mg/kg, 15 mg/kg, 30 mg/kg, or 40 mg/kg. A control group of mice were treated with calcitonin (400 ng) plus PTH (1 ug/100 g/6 hr), PTH alone (1 ug/100 g/6 hr) or saline. Treatment with oligonucleotides was followed with infusion of PTH by subcutaneously implanted mini-pumps at a dose of 1 ug/100 g/6 hr. After 24 hours of PTH infusion (total PTH delivery of 4 ug/100 g), the mice were sacrificed and the serum calcium concentration was measured with the Sigma Diagnostics Calcium Kit (Sigma-Aldrich). The data, summarized in Table 10 are averages from eight mice. Percent mRNA inhibition is normalized to PTH alone treatment.

RANKL mRNA [7] = assay: RANKL mRNA % inhibition after PTH infusion in mice treated with RANKL antisense oligonucleotides for two weeks (Table 10); assay type: in vivo, mouse; conditions: then 24 h PTH infusion, normalized to PTH alone
Protocol: as §1

[8] = 5 mg/kg subcutaneously two weeks
[9] = 15 mg/kg subcutaneously two weeks
[10] = 30 mg/kg subcutaneously two weeks

Substance: 143624 (antisense eT*eG*e[5mC]*eT*e[5mC]*dA*dG*d[5mC]*dG*dA*dG*dT*dG*dT*dG*e[5mC]*e[5mC]*eA*eG*e[5mC]) [compound 143624]
- % RANKL mRNA inhibition (RANKL mRNA [1]; 125 nM oligonucleotide 24 h): 3%
- % RANKL mRNA inhibition (RANKL mRNA [1]; 250 nM oligonucleotide 24 h): 0%
- % RANKL mRNA inhibition (RANKL mRNA [1]; 500 nM oligonucleotide 24 h): 9%
- % RANKL mRNA inhibition (RANKL mRNA [2]): 4%

Substance: 180819 (antisense eT*eG*e[5mC]*eA*eG*dG*dT*d[5mC]*d[5mC]*d[5mC]*dA*dG*d[5mC]*dG*d[5mC]*eA*eA*eT*eG*eT) [compound 180819]
- % INHIB (inhibition of mouse RANKL mRNA levels) (mouse RANKL mRNA [3]): 66%
- % Inhibition of RANKL mRNA (mouse RANKL mRNA [4]; 10 nM oligonucleotide): 41%
- % Inhibition of RANKL mRNA (mouse RANKL mRNA [4]; 50 nM oligonucleotide): 39%
- % Inhibition of RANKL mRNA (mouse RANKL mRNA [4]; 75 nM oligonucleotide): 57%
- % Inhibition of RANKL mRNA (mouse RANKL mRNA [4]; 100 nM oligonucleotide): 71%
- % Inhibition of RANKL mRNA (mouse RANKL mRNA [4]; 150 nM oligonucleotide): 75%
- % RANKL mRNA inhibition (RANKL mRNA [1]; 125 nM oligonucleotide 24 h): 39%
- % RANKL mRNA inhibition (RANKL mRNA [1]; 250 nM oligonucleotide 24 h): 71%
- % RANKL mRNA inhibition (RANKL mRNA [1]; 500 nM oligonucleotide 24 h): 85%
- % RANKL mRNA inhibition (RANKL mRNA [2]): 19%

Substance: tgcaggtcccagcgcaatgt (antisense eT*eG*e[5mC]*eA*eG*dG*dT*d[5mC]*d[5mC]*d[5mC]*dA*dG*d[5mC]*dG*d[5mC]*eA*eA*eT*eG*eT) [ISIS 180819, 2′-MOE gapmer targeted to mouse RANKL]
- % INHIB (inhibition of mouse RANKL mRNA levels) (mouse RANKL mRNA [3]): at least 40%
- inhibition of PTH-induced increase in RANKL mRNA expression (RANKL mRNA [1]; primary mouse osteoblast cells, 63 nM, 125 nM, 250 nM, or 500 nM, 24 hours, FuGENE 6, 10 nM PTH last 2 hours): able to inhibit the PTH-induced increase in RANKL mRNA expression
- % Inhibition of RANKL (RANKL mRNA [5]; intraperitoneal injection 15 mg/kg daily 2 weeks, proximal tibia, primer-probe set 1015): 2%
- % Inhibition of RANKL (RANKL mRNA [5]; intraperitoneal injection 15 mg/kg daily 2 weeks, proximal tibia, primer-probe set 1207): 0%
- % Inhibition of RANKL (RANKL mRNA [5]; intraperitoneal injection 30 mg/kg daily 2 weeks, calvaria, primer-probe set 1015): 39%
- % Inhibition of RANKL (RANKL mRNA [5]; intraperitoneal injection 30 mg/kg daily 2 weeks, calvaria, primer-probe set 1207): 24%
- % Inhibition of RANKL (RANKL mRNA [5]; intraperitoneal injection 30 mg/kg daily 2 weeks, proximal tibia, primer-probe set 1015): 0%
- % Inhibition of RANKL (RANKL mRNA [5]; intraperitoneal injection 30 mg/kg daily 2 weeks, proximal tibia, primer-probe set 1207): 0%
- % Inhibition of RANKL (RANKL mRNA [5]; intraperitoneal injection 50 mg/kg daily 2 weeks, calvaria, primer-probe set 1015): 51%
- % Inhibition of RANKL (RANKL mRNA [5]; intraperitoneal injection 50 mg/kg daily 2 weeks, calvaria, primer-probe set 1207): 54%
- % Inhibition of RANKL (RANKL mRNA [5]; intraperitoneal injection 50 mg/kg daily 2 weeks, proximal tibia, primer-probe set 1015): 21%
- % Inhibition of RANKL (RANKL mRNA [5]; intraperitoneal injection 50 mg/kg daily 2 weeks, proximal tibia, primer-probe set 1207): 13%
- inhibition of PTH-induced increase in RANKL mRNA expression in the proximal tibia and calvaria (RANKL mRNA [5]; mice, 2 weeks daily s.c. 30 or 50 mg/kg or i.p. 15, 30 or 50 mg/kg, 24 hours PTH infusion): capable of inhibiting the PTH-induced increase in RANKL mRNA expression; also recorded: greater inhibition observed in the calvaria
- % Inhibition of RANKL (RANKL mRNA [5]; subcutaneous injection 30 mg/kg daily 2 weeks, calvaria, primer-probe set 1015): 38%
- % Inhibition of RANKL (RANKL mRNA [5]; subcutaneous injection 30 mg/kg daily 2 weeks, calvaria, primer-probe set 1207): 38%
- % Inhibition of RANKL (RANKL mRNA [5]; subcutaneous injection 30 mg/kg daily 2 weeks, proximal tibia, primer-probe set 1015): 5%
- % Inhibition of RANKL (RANKL mRNA [5]; subcutaneous injection 30 mg/kg daily 2 weeks, proximal tibia, primer-probe set 1207): 10%
- % Inhibition of RANKL (RANKL mRNA [5]; subcutaneous injection 50 mg/kg daily 2 weeks, calvaria, primer-probe set 1015): 60%
- % Inhibition of RANKL (RANKL mRNA [5]; subcutaneous injection 50 mg/kg daily 2 weeks, calvaria, primer-probe set 1207): 52%
- % Inhibition of RANKL (RANKL mRNA [5]; subcutaneous injection 50 mg/kg daily 2 weeks, proximal tibia, primer-probe set 1015): 32%
- % Inhibition of RANKL (RANKL mRNA [5]; subcutaneous injection 50 mg/kg daily 2 weeks, proximal tibia, primer-probe set 1207): 36%
- serum calcium [6, 8]: 21 mg/dL
- serum calcium [6, 9]: 17 mg/dL
- serum calcium [6, 10]: 19 mg/dL
- PTH-induced increase in serum calcium concentration ([6]; mice, s.c. two weeks 5, 15, 30 or 40 mg/kg, 24 hours PTH infusion): lessen the PTH-induced increase in serum calcium concentration
- RANKL mRNA, % inhib (RANKL mRNA [7]; [8]): 0 % inhib
- RANKL mRNA, % inhib (RANKL mRNA [7]; [9]): 0 % inhib
- RANKL mRNA, % inhib (RANKL mRNA [7]; [10]): 0 % inhib
